According to patent US7939098B2, “Compositions and method for transmucosal drug delivery and cryoprotection” (Femina Pharma Incorporated, priority 2002, dated 2011):

What was measured:
porcine buccal mucosa = test: Transepithelial transport of [3H]water across porcine buccal mucosa in vitro, continuous flow apparatus; format: in vitro ADME
Procedure: (§1) Porcine buccal and nasal mucosa (lateral) was obtained at slaughter and utilized within 3 hours of harvest. Tissue samples approximately 8 mm in diameter were mounted between two halves of through-flow mucosal perfusion cells exposing an area of epithelial surface approximately 0.20 cm^2 for transepithelial transport. The chambers were mounted on water-jacketed blocks maintained at 37° C. During the set up period, the exposed epithelial surface was kept moist with phosphate buffered saline (PBS, 0.01M, pH 7.4). The buffer solution was removed by vacuum immediately prior to application of labeled test compound. […] In the receiver compartment, PBS was continuously pumped through the lower chamber (i.e., blood compartment) as a collection fluid at rate of 1.8 mL/hr, which was previously determined to be sufficient to maintain sink conditions in the receiver compartment. This fluid was collected into scintillation vials for 1 or 2 hour intervals over the entire collection period and radioactivity was determined by liquid scintillation counter. Transepithelial flux of the marker solute in the presence of various concentrations of permeation enhancers was calculated at each sampling interval from the relationship: Flux=Q/At where Q is the finite quantity of solute traversing the tissue barrier (dpm) in time t (min); A is the area of epithelial surface exposed in cm^2. […]

porcine nasal mucosa = test: Transepithelial transport of [3H]water across porcine nasal mucosa in vitro, continuous flow apparatus; format: in vitro ADME
Procedure: as §1

healthy female rabbits = conditions: rabbit, in vivo
Procedure: A 10 day, repeat dose, vaginal toxicity study was conducted in healthy female rabbits. Three doses and two controls were used. […] Doses of SUPPOCIRE® and SUPPOCIRE® plus ethoxydiglycol were used as controls. The study findings are summarized below.

[1] = essentially the same amount as i.v.; cited from earlier work

SMILES	increase of mean steady state Kp as compared to control (porcine buccal mucosa; 30% (v/v) TRANSCUTOL versus control)	mean steady state Kp of [3H]water (porcine buccal mucosa; in the presence of 30% (v/v) TRANSCUTOL, n=7)	increase of mean steady state Kp compared to control PBS (porcine nasal mucosa; 15% (v/v) TRANSCUTOL versus control PBS)	mean steady state Kp of [3H]water (porcine nasal mucosa; in the presence of 15% (v/v) TRANSCUTOL, n=7)	NOEL (healthy female rabbits; female, 10 days)	NOEL, equivalent human dose (healthy female rabbits; female, 10 days)	finding on cervix or uterus (healthy female rabbits)	one-time human dose extrapolated to be safe (healthy female rabbits)	systemic side effects (healthy female rabbits)	systemic level after oral administration compared to i.v. administration [1]
CCOCCOCCO [TRANSCUTOL®, diethyleneglycol monoethyl ether]	~25%	1.11±0.01×10^−3 cm/min	~37%	1.83±0.02×10^−3 cm/min						
NCCCC(O)(P(=O)(O)O)P(=O)(O)O [alendronate]					0.013 mg/3 kg rabbit dose	0.3 mg	No erythema, inflammation or erosion	10 mg	no systemic side effects	below 1%
